# Data reported in article PMC9246256, “Structure-based optimization of type III indoleamine 2,3-dioxygenase 1 (IDO1) inhibitors” (Journal of Enzyme Inhibition and Medicinal Chemistry, 2022).
# Where two headings read alike, the source gives them in different places.
# Target: T1, purified recombinant IDO1 (Homo sapiens, UniProt P14902)
# T1 construct: Full-length human IDO1 gene was cloned into the pET-28a vector; inferred from pET-28a vector and HisTrap purification; made in house; host or cells: E. coli Rosetta (DE3)
# T1 sequence (P14902 whole entry): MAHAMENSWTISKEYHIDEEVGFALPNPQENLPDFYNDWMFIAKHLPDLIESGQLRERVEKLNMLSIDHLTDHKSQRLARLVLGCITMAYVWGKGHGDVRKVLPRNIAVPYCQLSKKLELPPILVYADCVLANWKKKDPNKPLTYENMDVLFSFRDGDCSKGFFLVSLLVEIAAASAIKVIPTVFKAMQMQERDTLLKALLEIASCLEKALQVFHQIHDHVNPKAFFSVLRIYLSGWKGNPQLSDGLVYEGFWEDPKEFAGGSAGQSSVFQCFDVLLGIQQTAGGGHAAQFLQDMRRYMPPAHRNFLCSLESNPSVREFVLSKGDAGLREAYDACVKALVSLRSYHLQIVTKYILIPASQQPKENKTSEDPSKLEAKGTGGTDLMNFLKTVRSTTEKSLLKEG
# Test: Enzymatic IDO1 inhibition assay (ascorbate/methylene blue reduction system, HPLC detection of kynurenine)
# Type: biochemical
# Details: for IC50: enzymatic, L-Trp 100 µM, 0.01% Triton X-100, 5% DMSO, 20 min at room temperature, pH 6.5, duplicates; for LE [kcal/mol/HA]: ligand efficiency, LE = -RT log(IC50)/number of heavy atoms, from enzymatic IC50
# Experimental: Enzymatic IC50 values were measured with the ascorbate/methylene blue reduction system[85] in presence of a non-ionic detergent to reduce compound aggregation as described before[28]. Kynurenine and L-Trp concentrations were determined by HPLC through UV detection.
# Full-length human IDO1 gene was cloned into the pET-28a vector and expressed in E. coli Rosetta (DE3) cells. […] The culture was harvested and frozen at −80 °C until further use. The frozen cells were lysed by sonication in 20 mM Tris pH 7, 400 mM NaCl, 1 mM MgCl2, 20 mM imidazole, 1 mM DTT, 0.5 mg/mL Lysozyme and Protease inhibitor. After centrifugation, the supernatant was loaded into a HisTrap HP column pre-equilibrated with buffer containing 20 mM Tris pH 7, 500 mM NaCl and 20 mM imidazole, and eluted with the same buffer containing 500 mM imidazole. Fractions containing IDO1 were pooled, concentrated, and injected on a size exclusion chromatography column (HiLoad Superdex S75 16/60) to increase purity. hIDO1 fractions were concentrated to 20 mg/mL in 20 mM Tris pH 7 and 150 mM NaCl.
# The enzymatic inhibition assays were performed as described by Takikawa et al.[130] with some modifications. Briefly, the reaction mixture (100 µL) contained potassium phosphate buffer (100 mM, pH 6.5) ascorbic acid (20 mM), catalase (400 units/mL), methylene blue (10 µM), purified recombinant IDO1 (2.5 ng/µL), L-Trp (100 µM), Triton X-100 (0.01%) and DMSO (5 µL). The inhibitors were serially diluted 3-fold for at least 8 different concentrations. After incubation at room temperature for 20 min, the reaction was stopped in its linear phase by addition of trichloroacetic acid solution (40 mL, 30% w/v), and the samples were incubated at 50 °C for 30 min. After centrifugation, 80 µl of supernatant from each well were used for HPLC analysis. The mobile phase for HPLC analysis was composed of 50% (v/v) of methanol and 50% of sodium citrate buffer (40 mM, pH 2.4) containing 400 µM sodium dodecyl sulphate. […] All assays were carried out in duplicates. The activity (Act) of each compound was calculated as Act = RT log(IC50) in analogy to the relation between the binding free energy and the Ki value. The ligand efficiency (LE) was calculated as LE = −Act/NHA, where NHA is the number of non-hydrogen atoms (heavy atoms) in the compound.
SMILES,IC50 (read-out: IC50 [ μ M] (SD)) [µM],LE [kcal/mol/HA],IC50 (IC50 [ μ M] (SD)) [µM]
"Fc1ccc(-c2nc[nH]n2)cc1 [Compound 134, 3–(4-Fluorophenyl)-1H-1,2,4-triazole]",> 1000,,
"c1ccc(-c2nnc[nH]2)nc1 [Compound 159, 2-(1H-1,2,4-Triazol-3-yl)pyridine]",,,> 1000
"Clc1cccc(Cl)c1-c1c[nH]nn1 [Compound 51, 4–(2,6-Dichlorophenyl)-1,2,3-triazole]",280,0.37,
"Cc1cccc2sc3nncn3c12 [Compound 167, tryclazole, reference compound]",,,> 1000
"c1ccc(-n2cncn2)cc1 [Compound 170, 1-phenyl-1,2,4-triazole]",870,0.38,
"NCc1nn[nH]c1C(=O)c1ccc(Br)cc1 [Compound 126, (4-(Aminomethyl)-1H-1,2,3-triazol-5-yl)(4-bromophenyl)methanone]",> 1000,,
"O=C(c1ccc(Br)cc1)c1[nH]nnc1CO [Compound 123, (4-Bromophenyl)(4-(hydroxymethyl)-1H-1,2,3-triazol-5-yl)methanone]",> 1000,,
"Cc1c(Br)ccc(N)c1-c1nc[nH]n1 [Compound 155, 4-Bromo-3-methyl-2-(1H-1,2,4-triazol-3-yl)aniline]",63,0.41,
Cc1cccc(-c2cnn[nH]2)c1 [Compound 21],,0.53,
"NC(=O)CSc1nnc2sc3ccccc3n12 [Compound 168, 2-((1,9a-Dihydrobenzo[4,5]thiazolo[2,3-c][1,2,4]triazol-3-yl)thio)acetamide]",> 1000,,
"Clc1cncc(-c2nc[nH]n2)n1 [Compound 162, 2-Chloro-6-(1H-1,2,4-triazol-3-yl)pyrazine]",250,0.41,
"COc1cccc(OC)c1-c1c[nH]nn1 [Compound 45, 4–(2,6-Dimethoxyphenyl)-1,2,3-triazole]",> 1000,,
"Brc1ccc(Nc2nnc[nH]2)cc1 [Compound 166, N-(4-Bromophenyl)-4H-1,2,4-triazol-3-amine]",> 1000,,
"Brc1cccc(-c2nc[nH]n2)c1 [Compound 135, 3–(3-Bromophenyl)-1H-1,2,4-triazole]",16,0.55,
"Nc1cccnc1-c1nc[nH]n1 [Compound 160, 2-(1H-1,2,4-Triazol-3-yl)pyridine-3-amine]",16,0.55,
"O=C(c1ccc(O)cc1)c1cnn[nH]1 [Compound 108, (4-Hydroxyphenyl)(1H-1,2,3-triazol-5-yl)methanone]",> 1000,,
"Fc1cccc(-c2nc[nH]n2)c1 [Compound 137, 3–(3-Fluorophenyl)-1H-1,2,4-triazole]",160,0.43,
"Cc1[nH]nnc1-c1cccc(Cl)c1 [Compound 63, 4–(3-Chlorophenyl)-5-methyl-1,2,3-triazole]",> 1000,,
"O=C(c1ccc(Br)cc1)c1[nH]nnc1CBr [Compound 124, (4-(Bromomethyl)-1H-1,2,3-triazol-5-yl)(4-bromophenyl)methanone]",> 1000,,
"c1cc(-c2nc[nH]n2)ccn1 [Compound 158, 4-(1H-1,2,4-Triazol-3-yl)pyridine]",> 1000,,
"Clc1cc(Cl)cc(-c2c[nH]nn2)c1 [Compound 50, 4–(3,5-Dichlorophenyl)-1,2,3-triazole]",58,0.44,
Clc1ccc(Cl)c(-c2cnn[nH]2)c1 [Compound 46],,0.54,
"CCCCc1cccc(-c2c[nH]nn2)c1 [Compound 24, 4–(3-Butylphenyl)-1,2,3-triazole]",34,0.41,
"COc1cccc(C(=O)c2cnn[nH]2)c1 [Compound 104, (3-Methoxyphenyl)(1H-1,2,3-triazol-5-yl)methanone]",990,0.28,
"Nc1ccsc1-c1nc[nH]n1 [Compound 161, 2-(1H-1,2,4-Triazol-3-yl)thiophen-3-amine]",10,0.57,
"Oc1ccc(-c2c[nH]nn2)cc1 [Compound 20, 4–(1,2,3-Triazol-4-yl)phenol]",> 1000,,
NC(=O)c1[nH]nnc1-c1cc(Cl)ccc1O [Compound 67],> 1000,,
CCc1cccc(-c2cnn[nH]2)c1 [Compound 22],,0.51,
Nc1ccc(Br)cc1-c1nnc[nH]1 [Compound 12],,0.80,
"CC(C)c1cccc(-c2c[nH]nn2)c1 [Compound 23, 4–(3-Isopropylphenyl)-1,2,3-triazole]",280,0.35,

# Further lines, with some results ahead:
IC50 (read-out: IC50 [ μ M] (SD)) [µM],LE [kcal/mol/HA],SMILES,IC50 (IC50 [ μ M] (SD)) [µM]
> 1000,,"CON=C(c1ccccc1)c1c[nH]nn1 [Compound 87, Phenyl(1H-1,2,3-triazol-4-yl)methanone O-methyl oxime]",
> 1000,,"COc1ccccc1C(=O)c1cnn[nH]1 [Compound 103, (2-Methoxyphenyl)(1H-1,2,3-triazol-5-yl)methanone]",
> 1000,,"O=C(c1cnn[nH]1)c1ccccc1Cl [Compound 100, (2-Chlorophenyl)(1H-1,2,3-triazol-5-yl)methanone]",
> 100,,c1ccc2c(c1)ccc1nn[nH]c12 [Compound 88],
> 100,,"O=C(Nc1ccccc1-c1nc[nH]n1)c1ccccc1 [Compound 152, N-(2-(1H-1,2,4-triazol-3-yl)phenyl)benzamide]",
160,0.26,"Oc1ccc(CCc2ccccc2)cc1-c1cnn[nH]1 [Compound 39, 4-Phenylethyl-2-(1H-1,2,3-triazol-5-yl)phenol]",
> 100,,c1ccc(Nc2cnn[nH]2)cc1 [Compound 79],
> 1000,,"O=C(c1cccc(O)c1)c1cnn[nH]1 [Compound 107, (3-Hydroxyphenyl)(1H-1,2,3-triazol-5-yl)methanone]",
> 1000,,"OC(c1ccccc1)c1c[nH]nn1 (stereo not drawn) [Compound 85, Phenyl(1,2,3-triazol-4-yl)methanol]",
> 1000,,"c1ccc2c(c1)Cc1n[nH]nc1-2 [Compound 89, 3,8-Dihydroindeno[1,2-d][1,2,3]triazole]",
> 1000,,"O=C(Nc1ccccc1)c1cn[nH]n1 [Compound 86, N-Phenyl-1H-1,2,3-triazole-4-carboxamide]",
32,0.52,Oc1ccccc1-n1cncn1 [Compound 171],
590,0.37,"c1ccc(Sc2c[nH]nn2)cc1 [Compound 83, 4-(Phenylthio)-1,2,3-triazole]",
450,0.33,"O=C(c1cccc(Cl)c1)c1cnn[nH]1 [Compound 101, (3-Chlorophenyl)(1H-1,2,3-triazol-5-yl)methanone]",
> 1000,,"O=S(=O)(c1ccccc1)c1c[nH]nn1 [Compound 84, 4-(Phenylsulfonyl)-1H-1,2,3-triazole]",
> 250,,c1ccc(Nc2[nH]nnc2-c2ccccc2)cc1 [Compound 80],
430,0.35,"O=C(c1ccccc1)c1cnn[nH]1 [Compound 99, Phenyl(1H-1,2,3-triazol-5-yl)methanone]",
> 1000,,"c1ccc(Oc2cnn[nH]2)cc1 [Compound 82, 4-(Phenoxy)-1,2,3-triazole]",
> 1000,,"O=C(Nc1c(Cl)cccc1-c1nc[nH]n1)c1ccccc1 [Compound 154, N-(2-Chloro-6-(1H-1,2,4-triazol-3-yl)phenyl)benzamide]",
630,0.34,"N#Cc1[nH]nnc1-c1ccccc1 [Compound 62, 4-Phenyl-1H-1,2,3-triazole-5-carbonitrile]",
> 500,,"c1ccc(COc2ccccc2-c2c[nH]nn2)cc1 [Compound 25, 4–(2-Benzyloxyphenyl)-1,2,3-triazole]",
